This note sets out measurements from US8318731B2, “Pyrrolopyrimidines” (Janssen Pharmaceutica NV, priority 2007, dated 2012).

One data set deals with HCT-116. In words: Cellular proliferation assay (Alamar blue), HCT-116. As to conditions: Homo sapiens; HCT-116 cells; 10% FCS; 72 h with compound; Alamar blue 4 h; read-out: pIC50 HCT-116 (converted). The format is cell-based. In a few lines: (§1)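 Resazurin-based Alamar blue fluorescence (544/590 nm) measured viable cell number after 72 h compound exposure, following 24 h compound-free seeding, with 10% FCS, 37° C, 5% CO2. Dye incubation lasted 24 h for PC3 and A2780, 6 h for U87-MG, 4 h for HCT-116; results relative to untreated controls.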

The subject of a further data set is PC3. The data set can be described thus: Cellular proliferation assay (Alamar blue), PC3. Type of data set: cell-based. Conditions: Homo sapiens, PC-3, PC-3 cells; 10% FCS; 72 h with compound; Alamar blue 24 h; read-out: pIC50 PC-3 (converted). The method, boiled down:
as §1
For orientation: Resazurin is reduced to fluorescent resorufin, in cell work by metabolically active cells.

The next data set relates to H1299. In words: Cellular proliferation assay (Alamar blue), H1299. Type of data set: cell-based. As to conditions: Homo sapiens, NCI-H1299, H1299 cells; 10% FCS; 72 h with compound; Alamar blue 4 h; read-out: pIC50 H1299 (converted). In a few lines: (§2)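 Viable cell number is determined by Alamar blue conversion after cells are treated with compound for 72 hours, following 24 hours of growth without compound in 10% FCS. The effect is calculated against control cells.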

The test system of a further data set is A2780. In words: Cellular proliferation assay (Alamar blue), A2780. As to conditions: Homo sapiens, A2780, A2780 cells; 10% FCS; 72 h with compound; Alamar blue 24 h; read-out: pIC50 A2780 (converted). Type of data set: cell-based. In a few lines: as §1
For another data set, the system named is MDA-MB-231. The data set can be described thus: Cellular proliferation assay (Alamar blue), MDA-MB-231. The format is cell-based. As to conditions: Homo sapiens, MDA-MB-231, MDA-MB-231 cells; 10% FCS; 72 h with compound; Alamar blue 24 h; read-out: pIC50 MDA/MB231 (converted). In a few lines: as §2
The target of another data set is T1, PLK4 (h) (Homo sapiens, UniProt O00444).
T1 sequence (O00444 1-970): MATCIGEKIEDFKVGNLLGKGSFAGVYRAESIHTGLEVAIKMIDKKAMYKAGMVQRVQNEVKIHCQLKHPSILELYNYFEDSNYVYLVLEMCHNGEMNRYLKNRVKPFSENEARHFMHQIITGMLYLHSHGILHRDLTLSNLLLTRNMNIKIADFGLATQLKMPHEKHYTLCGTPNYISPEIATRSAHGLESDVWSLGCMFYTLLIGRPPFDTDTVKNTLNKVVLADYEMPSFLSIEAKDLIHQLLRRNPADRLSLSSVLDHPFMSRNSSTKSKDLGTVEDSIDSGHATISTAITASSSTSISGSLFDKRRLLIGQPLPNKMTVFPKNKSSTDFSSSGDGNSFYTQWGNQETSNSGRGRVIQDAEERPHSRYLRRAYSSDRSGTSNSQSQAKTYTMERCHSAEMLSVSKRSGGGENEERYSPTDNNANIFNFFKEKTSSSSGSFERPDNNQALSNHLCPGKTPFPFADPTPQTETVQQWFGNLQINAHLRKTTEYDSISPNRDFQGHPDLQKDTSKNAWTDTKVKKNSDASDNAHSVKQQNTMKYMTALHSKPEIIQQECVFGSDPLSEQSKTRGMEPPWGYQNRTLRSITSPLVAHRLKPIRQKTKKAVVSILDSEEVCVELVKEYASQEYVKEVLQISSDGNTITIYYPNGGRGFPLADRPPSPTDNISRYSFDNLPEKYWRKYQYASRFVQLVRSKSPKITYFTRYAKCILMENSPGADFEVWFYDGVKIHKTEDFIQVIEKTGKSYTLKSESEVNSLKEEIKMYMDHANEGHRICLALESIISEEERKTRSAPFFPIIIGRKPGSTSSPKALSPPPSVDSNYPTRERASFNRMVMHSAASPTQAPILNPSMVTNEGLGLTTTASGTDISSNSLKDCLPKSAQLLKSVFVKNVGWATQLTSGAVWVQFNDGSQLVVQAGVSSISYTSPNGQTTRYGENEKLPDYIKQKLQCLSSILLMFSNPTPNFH
In words: PLK-4 human kinase scintillation proximity assay (SPA). The format is biochemical. As to conditions: 1 μM ATP, 60 minutes at r.t., read-out: PLK4 pIC50 (converted). In a few lines:
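Scintillation proximity read-out: EDTA-stopped reactions were captured on streptavidin SPA beads after PLK4 (19 μg/ml) had phosphorylated 10 μM biotin-peptide for 60 min at room temperature, using 1 μM ATP spiked with 2 nM 33P-ATP in pH 8.0 HEPES buffer.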

Another data set has as its system U87-MG. The data set can be described thus: Cellular proliferation assay (Alamar blue), U87-MG. The format is cell-based. As to conditions: Homo sapiens, U-87 MG; U87-MG cells; 10% FCS; 72 h with compound; Alamar blue 6 h; read-out: pIC50 U87MG (converted). The method, boiled down: as §1

The term melting point denotes the temperature of the solid-liquid transition.

As for `COc1ccc2cc1OCCCC(=O)N(C)CC1CN(Cc3c[nH]c4ncnc(c34)N2)C1` [Compound 73], the melting point worked out at 265.3 °C. In addition, the IC50 with HCT-116 was greater than 10000 nM. For the same compound, the IC50 in the data set with PC3 was greater than 10000 nM. Besides, in the data set with H1299, the IC50 was greater than 10000 nM. For the same compound, in the data set with A2780, the IC50 is greater than 10000 nM. Moreover, in the data set on MDA-MB-231, the IC50 was greater than 10000 nM. Besides, the IC50 on PLK4 (h) was 200 nM.

As for `CN1CCCN(C)C(=O)COc2cc(ccc2OC2CCOCC2)Nc2ncnc3[nH]cc(c23)C1` [Compound 74], the melting point was found to be 270.9 °C. Moreover, on PLK4 (h), the IC50 is 200 nM.

Take `CN1CCCCN(C)C(=O)COc2cc(ccc2OCC(=O)Nc2ccc(Cl)cc2)Nc2ncnc3[nH]cc(c23)C1` [Compound 133]: the IC50 is 2510 nM in the data set with U87-MG; 79.4 nM in the data set on HCT-116; 2510 nM in the data set on PC3; 200 nM with H1299; 63.1 nM in the data set with A2780; 3160 nM in the data set on MDA-MB-231. The IC50 at PLK4 (h) is 63.1 nM.

Take `CN1CCCN(C)C(=O)COc2cc(ccc2OCCOc2ccc(Cl)cc2)Nc2ncnc3[nH]cc(c23)C1` [Compound 134]: the IC50 in the data set with U87-MG is 3160 nM; in the data set on HCT-116 it was 126 nM; in the data set with PC3 it was 6310 nM; with H1299, 398 nM; in the data set on A2780 it was 39.8 nM; with MDA-MB-231 it was 5010 nM. In addition, the IC50 on PLK4 (h) is 79.4 nM.

For the compound `CN1CCCN(C)C(=O)COc2cc(ccc2OCCN2CCCCC2)Nc2ncnc3[nH]cc(c23)C1` [Compound 136], the IC50 was 1580 nM with U87-MG; 2510 nM in the data set on HCT-116; 2510 nM in the data set on PC3; 5010 nM in the data set on H1299; 1000 nM in the data set with A2780; 3160 nM in the data set on MDA-MB-231. In addition, at PLK4 (h), the IC50 was 251 nM.

For the compound `CN1CCCN(C)C(=O)COc2cc(ccc2OCCCN2CCOCC2)Nc2ncnc3[nH]cc(c23)C1` [Compound 137], the IC50 was 1580 nM in the data set with U87-MG; 1260 nM in the data set with HCT-116; 3160 nM in the data set on PC3; 3980 nM with H1299; 794 nM with A2780; 3160 nM with MDA-MB-231. Besides, at PLK4 (h), the IC50 was 398 nM.

Turning to `COCCOc1ccc2cc1OCC(=O)N(C)CCCNCc1c[nH]c3ncnc(c13)N2` [Compound 138], the IC50 in the data set on U87-MG is greater than 10000 nM; with HCT-116, 1000 nM; in the data set with PC3, greater than 10000 nM; in the data set with H1299 it was 5010 nM; with A2780, 631 nM; in the data set on MDA-MB-231 it was greater than 10000 nM. On PLK4 (h), the IC50 was 25.1 nM.

On to `CN1CCCN(C)C(=O)COc2cc(ccc2Br)Nc2ncnc3[nH]cc(c23)C1` [Compound 139], for which the IC50 is 1000 nM in the data set with U87-MG; 501 nM with HCT-116; 1000 nM in the data set on PC3; 794 nM in the data set with H1299; 631 nM with A2780; 1580 nM in the data set on MDA-MB-231. Further, the IC50 at PLK4 (h) is 63.1 nM.

As to `COCCN(CCOc1ccc2cc1OCC(=O)N(C)CCCN(C)Cc1c[nH]c3ncnc(c13)N2)C(C)C` [Compound 140], the IC50 with U87-MG was 1000 nM; with HCT-116 it was 1000 nM; in the data set on PC3, 1580 nM; in the data set on H1299 it was 3160 nM; in the data set with A2780, 1000 nM; in the data set with MDA-MB-231, 1580 nM. In addition, the IC50 at PLK4 (h) was 158 nM.

`COCCN(CCOc1ccc2cc1OCC(=O)N(C)CCCN(C)Cc1c[nH]c3ncnc(c13)N2)Cc1ccccc1` [Compound 141]: the IC50 in the data set on U87-MG is 2510 nM; with HCT-116, 398 nM; in the data set with PC3, 3160 nM; with H1299, 1260 nM; with A2780, 200 nM; with MDA-MB-231 it was 3980 nM. The IC50 at PLK4 (h) was 39.8 nM.

On to `CN1CCCN(C)C(=O)COc2cc(ccc2OCCCNc2ccc(Cl)cc2)Nc2ncnc3[nH]cc(c23)C1` [Compound 142], for which the IC50 with U87-MG was 3160 nM; with HCT-116, 631 nM; in the data set with PC3, 10000 nM; with H1299 it was 2000 nM; in the data set on A2780 it was 398 nM; with MDA-MB-231 it was greater than 10000 nM. Besides, at PLK4 (h), the IC50 was 79.4 nM.

In the case of `CN1CCCN(C)C(=O)COc2cc(ccc2OCCSc2nccn2C)Nc2ncnc3[nH]cc(c23)C1` [Compound 143], the IC50 with U87-MG is 3160 nM; in the data set with HCT-116, 1580 nM; with PC3 it was 5010 nM; with H1299, 6310 nM; in the data set with A2780, 1260 nM; with MDA-MB-231, 5010 nM. Moreover, at PLK4 (h), the IC50 is 63.1 nM.

Consider `COc1cc(NC(=O)COc2ccc3cc2OCC(=O)N(C)CCCN(C)Cc2cn(C)c4ncnc(c24)N3)cc(OC)c1OC` [Compound 145], for which the IC50 in the data set on U87-MG, with HCT-116, in the data set on PC3, in the data set with H1299, in the data set on A2780 and in the data set with MDA-MB-231 was greater than 10000 nM throughout. Also, the IC50 at PLK4 (h) was 5010 nM.

For `CN1CCCN(C)C(=O)COc2cc(ccc2Cl)Nc2ncnc3c2c(cn3C)C1` [Compound 146], the IC50 in the data set on U87-MG, with HCT-116, with PC3, in the data set with H1299, in the data set with A2780 and in the data set with MDA-MB-231 was greater than 10000 nM each time. For the same compound, the IC50 at PLK4 (h) is 631 nM.

`CCOCCOc1ccc2cc1OCC(=O)N(C)CCCN(C)Cc1c[nH]c3nc(C)nc(c13)N2` [Compound 147] displayed a melting point of 251 °C. The IC50 in the data set on U87-MG was greater than 10000 nM. Besides, the IC50 in the data set with HCT-116 is greater than 10000 nM. Also, the IC50 in the data set with PC3 was greater than 10000 nM. Moreover, in the data set on H1299, the IC50 was greater than 10000 nM. The IC50 with A2780 is 2510 nM. The IC50 in the data set with MDA-MB-231 was greater than 10000 nM.

In turn, `CN1CCCN(C)C(=O)COc2cc(ccc2OCC2CCN(Cc3ccccc3)CC2)Nc2ncnc3[nH]cc(c23)C1` [Compound 149] came in with a melting point of 241 °C. Moreover, the IC50 in the data set with U87-MG was 501 nM. The IC50 in the data set with HCT-116 is 398 nM. The IC50 in the data set with PC3 is 1000 nM. Further, the IC50 in the data set with H1299 was no less than 10000 nM. Besides, the IC50 with A2780 is 316 nM. Moreover, the IC50 in the data set on MDA-MB-231 is 1000 nM.

With `CN1CCCN(C)C(=O)COc2cc(ccc2OCCSc2ccc(Cl)cc2)Nc2ncnc3[nH]cc(c23)C1` [Compound 150], the melting point worked out at 252.6 °C. Moreover, in the data set on HCT-116, the IC50 is 63.1 nM. The IC50 in the data set with PC3 was 5010 nM. In the data set with H1299, the IC50 is no less than 10000 nM. The IC50 with A2780 is 63.1 nM. In addition, the IC50 in the data set on MDA-MB-231 was 2510 nM.

Consider `COc1ccc(OCCOc2ccc3cc2OCC(=O)N(C)CCCN(C)Cc2c[nH]c4ncnc(c24)N3)cc1` [Compound 155], for which the melting point turned out to be 250.4 °C. Also, in the data set with U87-MG, the IC50 is 251 nM. Besides, the IC50 with HCT-116 is 63.1 nM. In addition, in the data set with PC3, the IC50 is 2510 nM. The IC50 in the data set with H1299 is 126 nM. In addition, the IC50 in the data set on A2780 is 31.6 nM. In the data set on MDA-MB-231, the IC50 is 2510 nM.

`COCCOc1c(OC)cc2cc1OCC(=O)N(C)CCCN(C)Cc1c[nH]c3ncnc(c13)N2` [Compound 161] returned a melting point of 201.4 °C.
